Results published in the Kinase Knowledgebase extract (Sharma et al. 2016).

What follows are compounds tested against PIK3CA (human) (UniProt P42336) (assay: Inhibition of PIK3CA Kinase Activity).
Sequence of PIK3CA (human) (P42336 whole entry, looked up): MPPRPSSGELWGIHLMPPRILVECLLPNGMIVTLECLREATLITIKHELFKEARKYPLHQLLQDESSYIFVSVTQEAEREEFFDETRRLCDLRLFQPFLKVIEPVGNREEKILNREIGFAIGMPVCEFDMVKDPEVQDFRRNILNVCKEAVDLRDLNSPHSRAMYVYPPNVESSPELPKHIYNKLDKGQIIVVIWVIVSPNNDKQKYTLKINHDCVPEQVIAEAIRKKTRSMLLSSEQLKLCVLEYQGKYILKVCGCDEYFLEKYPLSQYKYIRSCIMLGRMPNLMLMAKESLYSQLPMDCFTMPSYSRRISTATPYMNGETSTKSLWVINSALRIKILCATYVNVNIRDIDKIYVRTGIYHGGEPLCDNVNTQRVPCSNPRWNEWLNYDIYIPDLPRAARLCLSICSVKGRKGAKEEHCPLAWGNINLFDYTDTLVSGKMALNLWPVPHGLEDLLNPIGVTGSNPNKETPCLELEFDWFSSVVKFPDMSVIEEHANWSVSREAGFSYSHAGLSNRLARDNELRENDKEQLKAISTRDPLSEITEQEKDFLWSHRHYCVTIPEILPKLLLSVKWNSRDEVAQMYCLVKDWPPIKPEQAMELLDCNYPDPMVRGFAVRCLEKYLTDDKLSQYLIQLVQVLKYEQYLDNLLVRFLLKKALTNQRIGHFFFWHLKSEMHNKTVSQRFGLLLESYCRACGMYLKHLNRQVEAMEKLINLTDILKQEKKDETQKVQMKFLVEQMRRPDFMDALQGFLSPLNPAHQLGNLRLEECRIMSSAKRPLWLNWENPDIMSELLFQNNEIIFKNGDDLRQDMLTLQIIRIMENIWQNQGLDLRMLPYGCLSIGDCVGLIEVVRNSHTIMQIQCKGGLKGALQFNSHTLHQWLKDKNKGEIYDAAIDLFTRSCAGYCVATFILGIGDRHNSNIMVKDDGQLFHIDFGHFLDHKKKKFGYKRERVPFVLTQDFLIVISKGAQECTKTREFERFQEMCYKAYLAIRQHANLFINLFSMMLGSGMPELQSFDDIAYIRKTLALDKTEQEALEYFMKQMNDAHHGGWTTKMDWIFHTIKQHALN

Q: With Nc1cnc(-c2nc(N3CCOCC3)nc3c2ncn3C2CCc3ccccc32)cn1 (stereo not given) as the compound, how does the IC50 read?
A: Its IC50 is < 1000 nM.

Q: Which IC50 does the source give for CCC(C#N)n1cnc2c(-c3cnc(N)cn3)nc(N3CCOCC3)nc21 (stereo not given) here?
A: The IC50 was < 1000 nM.

Q: Nc1cnc(-c2nc(N3CCOCC3)nc3c2ncn3Cc2ccccc2)cn1 was tested. Which IC50 did it give?
A: Its IC50 is < 1000 nM.

Q: For Nc1cnc(-c2nc(N3CCOCC3)nc3c2ncn3C2CCOC2)cn1 (stereo not given), which IC50 is on record?
A: The IC50 was < 1000 nM.

Q: Which IC50 does the source give for CC1CCCCC1n1cnc2c(-c3cnc(N)cn3)nc(N3CCOCC3)nc21 (stereo not given) here?
A: Its IC50 is < 1000 nM.

Q: With Nc1cnc(-c2nc(N3CCOCC3)nc3c2ncn3C2Cc3ccccc3C2)cn1 as the compound, how does the IC50 read?
A: The IC50 was < 1000 nM.

Q: Nc1cnc(-c2nc(N3CCOCC3)nc3c2ncn3C2CCC2)cn1 was tested. Which IC50 did it give?
A: The IC50 was < 1000 nM.

Q: Which IC50 does the source give for Cc1cccc(-n2cnc3c(-c4cnc(N)cn4)nc(N4CCOCC4)nc32)c1 here?
A: Its IC50 is < 1000 nM.

Q: For CC(C1CC1)n1cnc2c(-c3cnc(N)cn3)nc(N3CCOCC3)nc21 (stereo not given), which IC50 is on record?
A: Its IC50 is < 1000 nM.

Q: How did the IC50 turn out when Nc1cnc(-c2nc(N3CCOCC3)nc3[nH]cnc23)cn1 was run?
A: The IC50 was < 1000 nM.

Q: For Nc1cnc(-c2nc(N3CCOCC3)nc3c2ncn3-c2ccccc2)cn1, which IC50 is on record?
A: The IC50 was < 1000 nM.

Q: With CC(C)(C)Cn1cnc2c(-c3cnc(N)cn3)nc(N3CCOCC3)nc21 as the compound, how does the IC50 read?
A: The IC50 was < 1000 nM.

Q: Nc1cnc(-c2nc(N3CCOCC3)nc3c2ncn3C2CCN(c3ccccc3)C2)cn1 (stereo not given) was tested. Which IC50 did it give?
A: The IC50 was < 1000 nM.

Q: Which IC50 does the source give for CCC(CC)n1cnc2c(-c3cnc(N)cn3)nc(N3CCOCC3)nc21 here?
A: The IC50 was < 1000 nM.

Q: Which IC50 does the source give for Nc1cnc(-c2nc(N3CCOCC3)nc3c2nc(Br)n3C2CCOC2)cn1 (stereo not given) here?
A: The IC50 was < 1000 nM.

Q: How did the IC50 turn out when COCC(C)n1cnc2c(-c3cnc(N)cn3)nc(N3CCOCC3)nc21 (stereo not given) was run?
A: Its IC50 is < 1000 nM.

Q: For Nc1cnc(-c2nc(N3CCOCC3)nc3c2ncn3CC2CC2)cn1, which IC50 is on record?
A: The IC50 was < 1000 nM.

Q: Which IC50 does the source give for Nc1cnc(-c2nc(N3CCOCC3)nc3c2ncn3-c2ccc3c(c2)OCO3)cn1 here?
A: Its IC50 is < 1000 nM.

Q: How did the IC50 turn out when CCC(C)n1c(Br)nc2c(-c3cnc(N)cn3)nc(N3CCOCC3)nc21 (stereo not given) was run?
A: The IC50 was < 1000 nM.

Q: How did the IC50 turn out when CC(C)C(C)n1cnc2c(-c3cnc(N)cn3)nc(N3CCOCC3)nc21 (stereo not given) was run?
A: The IC50 was < 1000 nM.

Q: How did the IC50 turn out when Nc1cnc(-c2nc(N3CCOCC3)nc3c2ncn3C2CCN(c3ccccc3)CC2)cn1 was run?
A: The IC50 was < 1000 nM.

Q: How did the IC50 turn out when CCC(C)n1cnc2c(-c3cnc(N)cn3)nc(N3CCOCC3)nc21 (stereo not given) was run?
A: Its IC50 is < 1000 nM.

Q: Nc1cnc(-c2nc(N3CCOCC3)nc3c2ncn3Cc2c(F)cccc2F)cn1 was tested. Which IC50 did it give?
A: Its IC50 is < 1000 nM.

Q: Nc1cnc(-c2nc(N3CCOCC3)nc3c2ncn3C2CCc3ccccc3C2)cn1 (stereo not given) was tested. Which IC50 did it give?
A: Its IC50 is < 1000 nM.

Q: Which IC50 does the source give for Nc1cnc(-c2nc(N3CCOCC3)nc3c2ncn3C2CCCC2)cn1 here?
A: The IC50 was < 1000 nM.
